Assay results reported in US10221138B2, “Biaryl derivatives as GPR120 agonists” (LG CHEM, LTD., priority 2013, dated 2019).

The molecules below were run against T1, hGPR120 (Homo sapiens, UniProt Q5NUL3) (assay: Measurement of activity of GPR120 agonist (cell-based calcium fluorescence assay)). Settings: not given.
T1 construct: expressed in transfected cells; host or cells: CHO-K1
T1 sequence (Q5NUL3 1-361): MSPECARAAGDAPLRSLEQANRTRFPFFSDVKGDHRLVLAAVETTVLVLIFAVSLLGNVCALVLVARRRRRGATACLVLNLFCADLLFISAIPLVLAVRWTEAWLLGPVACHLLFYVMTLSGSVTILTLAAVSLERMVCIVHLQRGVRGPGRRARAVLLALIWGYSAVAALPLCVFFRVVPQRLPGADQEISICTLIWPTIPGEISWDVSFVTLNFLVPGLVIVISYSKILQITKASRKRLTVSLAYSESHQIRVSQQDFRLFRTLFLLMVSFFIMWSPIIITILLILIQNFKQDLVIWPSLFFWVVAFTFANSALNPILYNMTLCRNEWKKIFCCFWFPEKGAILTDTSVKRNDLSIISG
Method: CHO-K1 cells expressing Ga16 and hGPR120 were dispensed into each well of a 96-well plate (3×10^4 cells/100 μl/well) and then incubated in 5% CO2, 37° C. incubator for 18 hours. Each well was treated with 100 μl of Calcium 5 dye (Molecular Devices) solution including 2% DMSO and then incubated in 5% CO2, 37° C. incubator for 1 hour. Serially diluted GPR120 agonists were prepared to a final concentration of 0.5% DMSO in a 96-well plate.
Fluorescence increased by the serially diluted GPR120 agonists is calculated as a relative percent (%) value based on the fluorescence represented by the treatment of 1% DMSO only. […] The calculation of measurement was carried out by using statistical software (Prizm).
Activity is denoted based on the following criteria: […]
With `CC(C)Nc1ccccc1-c1cc(F)c(OCCCC(=O)O)c(F)c1` [Example 83, 4-[2,6-difluoro-4-[2-(isopropylamino)phenyl]phenoxy]butanoic Acid] the EC50 was 200 to 2000 nM.

Same assay, conditions: CHO-K1 cells expressing Ga16 and hGPR120, Calcium 5 dye fluorescence; activity class; read-out: EC50
Work on `CC(C)(C)[Si](C)(C)OC1CCC(Oc2ncccc2-c2cc(F)c(OCCCC(=O)O)c(F)c2)C1` (centres unmarked) [Example 226, 4-(4-{2-[3-(tert-butyl-dimethyl-silanyloxy)-cyclopentyloxy]-pyridin-3-yl}-2,6-difluoro-phenoxy)-butyric acid] yielded an EC50 of over 20000 nM. Molecule `O=C(O)CCCOc1ccc(-c2cccc(OC3CCCC3)c2)c(F)c1F` [Example 14, 4-[4-[3-(cyclopentoxy)phenyl]-2,3-difluoro-phenoxy]butyric acid] has an EC50 of 200 to 2000 nM. Molecule `O=C(O)CCCOc1c(F)cc(-c2cccnc2SCC2CC2)cc1F` [Example 47, 4-[4-(2-cyclopropylmethylsulfanyl-pyridin-3-yl)-2,6-difluoro-phenoxy]-butyric acid] has an EC50 of under 200 nM. `O=C(O)CCCCOc1c(F)cc(-c2cccnc2SC2CCC2)cc1F` [Example 233, 5-[4-(2-cyclobutylsulfanyl-3-pyridyl)-2,6-difluoro-phenoxy]pentanoic acid] showed an EC50 of under 200 nM. For `CC(CCOc1c(F)cc(-c2cccnc2SC2CCC2)cc1F)C(=O)O` (centres unmarked) [Example 59, 4-[4-(2-cyclobutylsulfanyl-pyridin-3-yl)-2,6-difluoro-phenoxy]-2-methyl-butyric acid], the EC50 was under 200 nM. Work on `CCCOc1cccc(-c2ccc(SCCCC(=O)O)cc2)n1` [Example 132, 4-[4-(6-propoxy-pyridin-2-yl)-phenylsulfanyl]-butyric acid] yielded an EC50 of under 200 nM. `O=C(O)CCCCSc1c(F)cc(-c2cccnc2OC2CCCC2)cc1F` [Example 252, 5-[4-(2-cyclopentyloxy-pyridin-3-yl)-2,6-difluoro-phenylsulfanyl]-pentanoic acid] gave an EC50 of under 200 nM. For `CCCOc1ncccc1-c1cc(F)c(SCCCC(=O)O)c(F)c1` [Example 139, 4-[2,6-difluoro-4-(2-propoxy-pyridin-3-yl)-phenylsulfanyl]-butyric acid], the EC50 was under 200 nM. `O=C(O)CCCSc1ccc(-c2cc(F)ccc2OC2CCCC2)cc1` [Example 179, 4-(2′-cyclopentyloxy-5′-fluoro-biphenyl-4-ylsulfanyl)-butyric acid] was tested, and the EC50 was 200 to 2000 nM. With `O=C(O)CCCOc1c(F)cc(-c2cccc(CC3CCCC3)n2)cc1F` [Example 100, 4-[4-[6-(cyclopentylmethyl)-2-pyridyl]-2,6-difluoro-phenoxy]butanoic acid] the EC50 was under 200 nM. Work on `CC(C)Sc1cc(-c2cc(F)c(OCCCC(=O)O)c(F)c2)ccn1` [Example 8, 4-[2,6-difluoro-4-(2-isopropylsulfanyl-4-pyridyl)phenoxy]butyric acid] yielded an EC50 of over 20000 nM. In the case of `CCCOc1cccc(-c2ccc(SCCCC(=O)O)cc2)c1` [Example 127, 4-(3′-propoxy-biphenyl-4-ylsulfanyl)-butyric acid], the EC50 is reported as under 200 nM. With `O=C(O)CCCCOc1c(F)cc(-c2cccnc2OC2CCC2)cc1F` [Example 214, 5-[4-(2-cyclobutoxy-pyridin-3-yl)-2,6-difluoro-phenoxy]-pentanoic acid] the EC50 was under 200 nM. In the case of `CC(C)Nc1cccc(-c2cc(F)c(OCCCC(=O)O)c(F)c2)c1` [Example 91, 4-[2,6-difluoro-4-[3-(isopropylamino)phenyl]phenoxy]butanoic acid], the EC50 is reported as under 200 nM. `CC(CCC(=O)O)Oc1c(F)cc(-c2cccc(OC3CCC3)n2)cc1F` (centres unmarked) [Example 29, 4-[4-[6-(cyclobutoxy)-2-pyridyl]-2,6-difluoro-phenoxy]pentanoic acid] showed an EC50 of under 200 nM. `CC(C)Oc1ncccc1-c1cc(F)c(SC(C)CCC(=O)O)c(F)c1` (centres unmarked) [Example 242, 4-[2,6-difluoro-4-(2-isopropoxy-pyridin-3-yl)-phenylsulfanyl]-pentanoic acid] gave an EC50 of under 200 nM. `CN1CCN(c2ncccc2-c2cc(F)c(OCCCC(=O)O)c(F)c2)CC1` [Example 216, 4-[2,6-difluoro-4-[2-(4-methylpiperazin-1-yl)-3-pyridyl]phenoxy]butanoic acid] gave an EC50 of over 20000 nM. In the case of `COc1ccc(-c2cc(F)c(SCCCC(=O)O)c(F)c2)c(OC2CCCC2)c1` [Example 184, 4-(2′-cyclopentyloxy-3,5-difluoro-4′-methoxy-biphenyl-4-ylsulfanyl)-butyric acid], the EC50 is reported as 200 to 2000 nM. `O=C(O)CCCOc1c(F)cc(-c2cccc(N3CCCCC3)n2)cc1F` [Example 15, 4-[2,6-difluoro-4-[6-(1-piperidyl)-2-pyridyl]phenoxy]butyric acid] gave an EC50 of 200 to 2000 nM. `CCCOc1cccc(-c2cc(F)c(OCCCC(=O)O)c(F)c2)n1` [Example 23, 4-[2,6-difluoro-4-(6-propoxy-2-pyridyl)phenoxy]butyric acid] was tested, and the EC50 was under 200 nM. Molecule `Cc1cnc(OC2CCCC2)c(-c2cc(F)c(SCCCC(=O)O)c(F)c2)c1` [Example 198, 4-[4-(2-cyclopentyloxy-5-methyl-pyridin-3-yl)-2,6-difluoro-phenylsulfanyl]-butyri c acid] has an EC50 of under 200 nM. `O=C(O)CCCOc1c(F)cc(-c2cccc(OC3CCC3)n2)cc1F` [Example 25, 4-[4-[6-(cyclobutoxy)-2-pyridyl]-2,6-difluoro-phenoxy]butyric acid] gave an EC50 of under 200 nM. With `CC(C)COc1ncccc1-c1cc(F)c(OCCCC(=O)O)c(F)c1` [Example 230, 4-[2,6-difluoro-4-(2-isobutoxy-pyridin-3-yl)-phenoxy]-butyric acid] the EC50 was under 200 nM. In the case of `O=C(O)CCCOc1c(F)cc(-c2ccccc2OC2CCCC2)cc1F` [Example 55, 4-(2′-cyclopentyloxy-3,5-difluoro-biphenyl-4-yloxy)-butyric acid], the EC50 is reported as under 200 nM. `CC(C)Oc1ncccc1-c1cc(F)c(SCCCCC(=O)O)c(F)c1` [Example 253, 5-[2,6-difluoro-4-(2-isopropoxy-pyridin-3-yl)-phenylsulfanyl]-pentanoic acid] gave an EC50 of 200 to 2000 nM. Molecule `O=C(O)CCCOc1cc(F)c(-c2cccnc2SC2CCC2)cc1F` [Example 61, 4-[4-(2-cyclobutylsulfanyl-pyridin-3-yl)-2,5-difluoro-phenoxy]-butyric acid] has an EC50 of 200 to 2000 nM. With `O=C(O)CCCOc1ccc(-c2cccnc2SC2CCC2)cc1` [Example 48, 4-[4-(2-cyclobutylsulfanyl-pyridin-3-yl)-phenoxy]-butyric acid] the EC50 was under 200 nM. Molecule `O=C(O)CCCOc1c(F)cc(-c2cccc(SC3CCCC3)n2)cc1F` [Example 6, 4-[4-(6-cyclopentylsulfanyl-2-pyridyl)-2,6-difluoro-phenoxy]butyric acid] has an EC50 of under 200 nM. `CC(C)(C)COc1ncccc1-c1cc(F)c(OCCCC(=O)O)c(F)c1` [Example 231, 4-{4-[2-(2,2-dimethy-propoxy)-pyridin-3-yl]-2,6-difluoro-phenoxy}-butyric acid] gave an EC50 of 200 to 2000 nM. With `O=C(O)CCCOc1c(F)cc(-c2cccc(C3CCCC3)c2)cc1F` [Example 97, 4-[4-(3-cyclopentylphenyl)-2,6-difluoro-phenoxy]butanoic acid] the EC50 was under 200 nM. `O=C(O)CCCOc1c(F)cc(-c2cccc(CC3CCCC3)c2)cc1F` [Example 98, 4-[4-[3-(cyclopentylmethyl)phenyl]-2,6-difluoro-phenoxy]butanoic acid] gave an EC50 of 200 to 2000 nM. `CC(C)Nc1cccc(-c2cc(F)c(OCCCC(=O)O)c(F)c2)n1` [Example 78, 4-[2,6-difluoro-4-[6-(isopropylamino)-2-pyridyl]phenoxy]butanoic acid] was tested, and the EC50 was 200 to 2000 nM. Molecule `O=C(O)CCCSc1c(F)cc(-c2cccnc2OCC2CCC2)cc1F` [Example 248, 4-[4-(2-cyclobutylmethoxy-pyridin-3-yl)-2,6-difluoro-phenylsulfanyl]-butyric acid] has an EC50 of under 200 nM. `O=C(O)CCCSc1c(F)cc(-c2cccnc2OCC(F)(F)F)cc1F` [Example 247, 4-{2,6-difluoro-4-[2-(2,2,2-trifluoro-ethoxy)-pyridin-3-yl]-phenylsulfanyl}-butyric acid] gave an EC50 of under 200 nM. Molecule `CN(C)CCOc1ncccc1-c1cc(F)c(OCCCC(=O)O)c(F)c1` [Example 203, 4-[4-[2-(2-dimethylaminoethyloxy)-3-pyridyl]-2,6-difluoro-phenoxy]butanoic acid] has an EC50 of over 20000 nM. With `O=C(O)CCCSc1ccc(-c2cccc(SC3CCC3)n2)cc1F` [Example 169, 4-[4-(6-cyclobutylsulfanyl-pyridin-2-yl)-2-fluoro-phenylsulfanyl]-butyric acid] the EC50 was under 200 nM. `O=C(O)CCCCCSc1c(F)cc(-c2cccnc2SC2CCC2)cc1F` [Example 278, 6-[4-(2-cyclobutylsulfanyl-pyridin-3-yl)-2,6-difluoro-phenylsulfanyl]-hexanoic acid] showed an EC50 of 200 to 2000 nM. Molecule `O=C(O)CCCSc1ccc(-c2cccnc2OC2CCOCC2)cc1F` [Example 244, 4-{2-fluoro-4-[2-(tetrahydropyran-4-yloxy)-pyridin-3-yl]-phenylsulfanyl}-butyric acid] has an EC50 of 200 to 2000 nM. `O=C(O)CCCOc1c(F)cc(-c2cccnc2C2CCCC2)cc1F` [Example 107, 4-[4-(2-cyclopentyl-3-pyridyl)-2,6-difluoro-phenoxy]butanoic acid] showed an EC50 of 200 to 2000 nM. With `O=C(O)CCCOc1ccc(-c2ccccc2OC2CCCC2)cc1` [Example 56, 4-(2′-cyclopentyloxy-biphenyl-4-yloxy)-butyric acid] the EC50 was 200 to 2000 nM.
